Reference: ChEMBL document CHEMBL1201862, “PubChem BioAssay data set” (2004)
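Growth conditions: 96-well plates. Treatment: test compound, 48 hours, 5 concentrations. Analysis: linear interpolation between bracketing concentrations; unreached endpoints set to highest concentration. GI50: concentration for 50% inhibition of growth.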 Calls of active or inactive are those of the source. Rule as the data show it: active = GI50 up to about 1.1 µM and inactive = higher.

How the values were obtained:
Test in all cases: growth of human tumour cells (NCI), 48 h
[1] = test system: OVCAR-8
[2] = test system: SF-295
[3] = test system: RPMI-8226
[4] = test system: TK-10
[5] = test system: EKVX
[6] = test system: RXF 393
[7] = test system: NCI-H226
[8] = test system: HCC 2998
[9] = test system: SK-MEL-5
[10] = test system: SNB-19
[11] = test system: OVCAR-4
[12] = test system: 786-0
[13] = test system: MOLT-4
[14] = test system: OVCAR-3
[15] = test system: UACC-62
[16] = test system: COLO 205
[17] = test system: A498

Structure (SMILES) | GI50 [1] | GI50 [2] | GI50 [3] | GI50 [4] | GI50 [5] | GI50 [6] | GI50 [7] | GI50 [8] | GI50 [9] | GI50 [10] | GI50 [11] | GI50 [12] | GI50 [13] | GI50 [14] | GI50 [15] | GI50 [16] | GI50 [17]
CCOC(=O)C(=O)Nc1ccc([N+](=O)[O-])cc1C#N | > 100 µM (inactive) | > 100 µM (inactive) | > 100 µM (inactive) | > 100 µM (inactive) | > 100 µM (inactive) | > 100 µM (inactive) | > 100 µM (inactive) | > 100 µM (inactive) | > 100 µM (inactive) | > 100 µM (inactive) | > 100 µM (inactive) | > 100 µM (inactive) | > 100 µM (inactive) | > 100 µM (inactive) | > 100 µM (inactive) | – | –
COC(=O)C1CC(C(=O)OC)c2nc3cc(C)ccc3nc21 (stereo unspecified) | > 100 µM (inactive) | > 100 µM (inactive) | > 100 µM (inactive) | > 100 µM (inactive) | > 100 µM (inactive) | – | > 100 µM (inactive) | > 100 µM (inactive) | > 100 µM (inactive) | > 100 µM (inactive) | > 100 µM (inactive) | > 100 µM (inactive) | > 100 µM (inactive) | > 100 µM (inactive) | > 100 µM (inactive) | > 100 µM (inactive) | > 100 µM (inactive)
O=C(c1ccco1)N(C(=S)N1CCN(c2ccccc2)CC1)c1ccccc1 | > 100 µM (inactive) | > 100 µM (inactive) | > 100 µM (inactive) | > 100 µM (inactive) | – | > 100 µM (inactive) | 25.6 µM (inactive) | – | > 100 µM (inactive) | > 100 µM (inactive) | > 100 µM (inactive) | > 100 µM (inactive) | > 100 µM (inactive) | > 100 µM (inactive) | > 100 µM (inactive) | > 100 µM (inactive) | –
COc1cc(C2(C)SCCCS2)cc(OC)c1OC | > 100 µM (inactive) | > 100 µM (inactive) | > 100 µM (inactive) | > 100 µM (inactive) | > 100 µM (inactive) | – | > 100 µM (inactive) | > 100 µM (inactive) | > 100 µM (inactive) | > 100 µM (inactive) | > 100 µM (inactive) | > 100 µM (inactive) | > 100 µM (inactive) | > 100 µM (inactive) | > 100 µM (inactive) | > 100 µM (inactive) | > 100 µM (inactive)
COc1cc2ccnc3c2c(c1OC)CC1CC(O)C(OC)CC31 (stereo unspecified) | 53.8 µM (inactive) | 36.6 µM (inactive) | 38.3 µM (inactive) | 53.8 µM (inactive) | 22.8 µM (inactive) | – | 96.4 µM (inactive) | 42.7 µM (inactive) | 38.4 µM (inactive) | 99.3 µM (inactive) | > 100 µM (inactive) | 33.5 µM (inactive) | 33.3 µM (inactive) | 82.2 µM (inactive) | 38.5 µM (inactive) | 43.2 µM (inactive) | –
CC1(C)O/C(=C\c2ccccc2)C(=O)/C(=C/c2ccccc2)O1 | 45.2 µM (inactive) | 44.9 µM (inactive) | 16.3 µM (inactive) | 44.2 µM (inactive) | 37.9 µM (inactive) | 13.9 µM (inactive) | 17.7 µM (inactive) | – | 14.4 µM (inactive) | 47.4 µM (inactive) | 56.6 µM (inactive) | 37.8 µM (inactive) | 14.7 µM (inactive) | 27.1 µM (inactive) | 25.8 µM (inactive) | 43.3 µM (inactive) | > 100 µM (inactive)
CNC(=O)NCNC(=O)NC | > 100 µM (inactive) | > 100 µM (inactive) | > 100 µM (inactive) | > 100 µM (inactive) | > 100 µM (inactive) | – | – | > 100 µM (inactive) | > 100 µM (inactive) | – | > 100 µM (inactive) | > 100 µM (inactive) | > 100 µM (inactive) | > 100 µM (inactive) | > 100 µM (inactive) | > 100 µM (inactive) | > 100 µM (inactive)
Cc1nc(N)nc(N)c1CCCCc1ccc(N)cc1 | 3.18 µM (inactive) | 1.94 µM (inactive) | 5.81 µM (inactive) | 11.5 µM (inactive) | 9.23 µM (inactive) | – | 25.8 µM (inactive) | 3.25 µM (inactive) | 3.43 µM (inactive) | 6.87 µM (inactive) | 10.6 µM (inactive) | 0.728 µM (active) | 1.58 µM (inactive) | 5.53 µM (inactive) | 1.86 µM (inactive) | 10.4 µM (inactive) | –
CCO[C@]12C[C@H](OC)[C@@]3(O)CC(C1[C@H]3OCc1ccccc1)C13C4C2[C@H](OC)C1[C@](COC)(CN4CC)[C@H](O)C[C@@H]3OC (stereo partly specified) | > 100 µM (inactive) | – | > 100 µM (inactive) | > 100 µM (inactive) | > 100 µM (inactive) | > 100 µM (inactive) | > 100 µM (inactive) | > 100 µM (inactive) | > 100 µM (inactive) | > 100 µM (inactive) | > 100 µM (inactive) | 7.38 µM (inactive) | 95.9 µM (inactive) | – | > 100 µM (inactive) | > 100 µM (inactive) | –
COC(=O)C(C(=O)C(=O)Nc1ccc(C)cc1C)c1nc2ccc([N+](=O)[O-])cc2nc1O (stereo unspecified) | > 100 µM (inactive) | > 100 µM (inactive) | 33.8 µM (inactive) | > 100 µM (inactive) | > 100 µM (inactive) | > 100 µM (inactive) | > 100 µM (inactive) | – | > 100 µM (inactive) | > 100 µM (inactive) | > 100 µM (inactive) | > 100 µM (inactive) | > 100 µM (inactive) | – | > 100 µM (inactive) | 95.7 µM (inactive) | > 100 µM (inactive)
Oc1ccc(-c2n[nH]c(S)n2)cc1 | > 100 µM (inactive) | > 100 µM (inactive) | > 100 µM (inactive) | > 100 µM (inactive) | > 100 µM (inactive) | – | > 100 µM (inactive) | – | > 100 µM (inactive) | > 100 µM (inactive) | > 100 µM (inactive) | > 100 µM (inactive) | > 100 µM (inactive) | > 100 µM (inactive) | > 100 µM (inactive) | > 100 µM (inactive) | > 100 µM (inactive)
Cc1cccc(N2C(=O)/C(=C/c3ccc(N(CCC#N)CCC#N)cc3C)N=C2c2cc([N+](=O)[O-])ccc2Cl)c1 | > 100 µM (inactive) | > 100 µM (inactive) | > 100 µM (inactive) | > 100 µM (inactive) | 68.1 µM (inactive) | – | > 100 µM (inactive) | > 100 µM (inactive) | > 100 µM (inactive) | > 100 µM (inactive) | > 100 µM (inactive) | > 100 µM (inactive) | 46.5 µM (inactive) | > 100 µM (inactive) | > 100 µM (inactive) | 47.3 µM (inactive) | > 100 µM (inactive)
Cc1ccc2[nH]c3c4c5ccccc5nc-4c[nH]c3c2c1 | 18.6 µM (inactive) | 17.2 µM (inactive) | 18.1 µM (inactive) | 21 µM (inactive) | 15.2 µM (inactive) | 13.8 µM (inactive) | 16.1 µM (inactive) | 16.1 µM (inactive) | – | 17.3 µM (inactive) | 22.1 µM (inactive) | 17.1 µM (inactive) | 16.2 µM (inactive) | 10 µM (inactive) | 16.4 µM (inactive) | 17.5 µM (inactive) | –
